Literature values as cited in patent publication US20090238905A1, “INFLAMMATION REDUCING ACTION OF SYNERGISTIC MIXTURES OF BISABOLOL AND GINGER EXTRACTS” (SYMRISE, Inc., priority 2008, published 2009).

SMILES | IL-1α inhibition (IL-1α) | LTB4 inhibition (LTB4) | PGE2 inhibition (PGE2) | inhibition of activation of TNF-α (TNF-α) | inhibition of COX-2 expression (COX-2) | inhibition of PGE2 production (HL-60 cells)
CC(C)=CCC[C@](C)(O)C1CC=C(C)CC1 (stereo partly shown) [Bisabolol, bisabolol] | very effective | very effective | not as a PGE2 inhibitor | – | – | –
CCCCC[C@H](O)CC(=O)CCc1ccc(O)c(OC)c1 [Gingerol] | did not have an effect | – | – | inhibit activation of TNF-α | inhibit | inhibit PGE2 production
